Assay [1] has as its system RS4; 11 leukaemia cell line. The experiment in a line: In vitro cytotoxicity, Microculture Tetrazolium Assay (MTT). The following applies: Homo sapiens, 11 cells exposed for 48 hours. In kind it is cell-based. How it is done: The cytotoxicity studies were carried out on the RS4; 11 leukaemia cell line and on H146 small Cell Lung Carcinoma cell line. The cells are distributed onto microplates and exposed to the test compounds for 48 hours. The cell viability is then quantified by a colorimetric assay, the Microculture Tetrazolium Assay (Cancer Res., 1987, 47, 939-942).

The target of assay [2] is Bcl-2 protein (histag-Bcl-2, UniProtKB P10415) (Homo sapiens (Human), UniProt P10415). The experiment in a line: Inhibition of Bcl-2 by the fluorescence polarisation technique. Format: binding. The following applies: fluorescence polarisation test; incubation for 2 hours; read-out: IC50 (nM) Bcl-2 FP. The source says:
For partial inhibitors, the percentage fluorescence polarisation inhibition for a given concentration of the test compound is indicated.
(Polarisation of emitted light reports the rotation of a fluorescent probe.)

Bcl-2 protein, sequence (P10415 whole entry): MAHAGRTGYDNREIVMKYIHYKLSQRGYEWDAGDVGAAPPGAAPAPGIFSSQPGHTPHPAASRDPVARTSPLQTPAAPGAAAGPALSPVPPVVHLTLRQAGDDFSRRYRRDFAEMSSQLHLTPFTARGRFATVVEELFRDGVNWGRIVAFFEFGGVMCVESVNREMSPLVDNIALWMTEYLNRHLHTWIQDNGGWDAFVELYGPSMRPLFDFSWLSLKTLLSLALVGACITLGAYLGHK

For the molecule `Cc1c(C(=O)N(C)c2ccc(O)cc2)cc(-c2cc3c(cc2C(=O)N2Cc4ccccc4C[C@H]2C)CN(C(=O)Cc2ccc4c(c2)OCO4)C3)n1C` [Example 172, 5-{2-[2-(2H-1,3-Benzodioxol-5-yl)acetyl]-6-[(3R)-3-methyl-1,2,3,4-tetrahydroisoquinoline-2-carbonyl]-2,3-dihydro-1H-isoindol-5-yl}-N-(4-hydroxyphenyl)-N,1,2-trimethyl-1H-pyrrole-3-carboxamide], the half-maximal inhibitory concentration (IC50) in assay [1] turned out to be 28 nM; in assay [2], 3.4 nM.
In the same order, the values of `Cc1c(C(=O)N(C)c2ccc(O)cc2)cc(-c2cc3c(cc2C(=O)N2Cc4ccccc4C[C@H]2CN2CCN(C)CC2)CN(C(=O)Cc2ccccc2)CC3)n1C` [Example 778, N-(4-Hydroxyphenyl)-N,1,2-trimethyl-5-{7-[(3S)-3-[(4-methylpiperazin-1-yl)methyl]-1,2,3,4-tetrahydroisoquinoline-2-carbonyl]-2-(2-phenylacetyl)-1,2,3,4-tetrahydroisoquinolin-6-yl}-1H-pyrrole-3-carboxamide] are 52 nM and 3.1 nM.
The matching figures for `Cc1c(C(=O)N(C)c2ccc(O)cc2)cc(-c2cc3c(cc2C(=O)N2Cc4ccccc4C[C@H]2CN(C)C)CN(C(=O)C(F)(F)F)CC3)n1C` [Example 782, 5-{7-[(3S)-3-[(Dimethylamino)methyl]-1,2,3,4-tetrahydroisoquinoline-2-carbonyl]-2-(trifluoroacetyl)-1,2,3,4-tetrahydroisoquinolin-6-yl}-N-(4-hydroxyphenyl)-N,1,2-trimethyl-1H-pyrrole-3-carboxamide]: 112 nM and 51 nM.
In the same order, the values of `CCCN(C(=O)c1cc(-c2cc3c(cc2C(=O)N2Cc4ccccc4C[C@H]2CN2CCOCC2)CN(C(=O)Cc2ccccc2)CC3)n(C)c1C)c1ccc(O)cc1` [Example 781, N-(4-Hydroxyphenyl)-1,2-dimethyl-5-{7-[(3S)-3-(morpholin-4-ylmethyl)-1,2,3,4-tetrahydroisoquinoline-2-carbonyl]-2-(2-phenylacetyl)-1,2,3,4-tetrahydroisoquinolin-6-yl}-N-propyl-1H-pyrrole-3-carboxamide] are 9.7 nM and 2.6 nM.
Take `C[C@@H]1Cc2ccccc2CN1C(=O)c1cc2c(cc1-c1cc(C(=O)N(C)c3ccc(O)cc3)c3n1CCCC3)CCN(S(=O)(=O)Cc1ccccc1)C2` [Example 40, N-(4-Hydroxyphenyl)-N-methyl-3-{7-[(3R)-3-methyl-1,2,3,4-tetrahydroisoquinoline-2-carbonyl]-2-phenylmethanesulfonyl-1,2,3,4-tetrahydroisoquinolin-6-yl}-5,6,7,8-tetrahydroindolizine-1-carboxamide]: the half-inhibitory concentration (IC50) in assay [1] is 34 nM; in assay [2] it was 3.6 nM.
In the case of `CCN1CCc2cc(-c3cc(C(=O)N(C)c4ccc(O)cc4)c4n3CCCC4)c(C(=O)N3Cc4ccccc4C[C@H]3C)cc2C1` [Example 57, 3-{2-Ethyl-7-[(3R)-3-methyl-1,2,3,4-tetrahydroisoquinoline-2-carbonyl]-1,2,3,4-tetrahydroisoquinolin-6-yl}-N-(4-hydroxyphenyl)-N-methyl-5,6,7,8-tetrahydroindolizine-1-carboxamide], the half-inhibitory concentration (IC50) worked out at 1250 nM in assay [1] and 65 nM in assay [2].
The matching figures for `CN(C(=O)c1cc(-c2cc3c(cc2C(=O)N2Cc4ccccc4C[C@H]2CN2CCOCC2)CN(C(=O)Nc2ccccc2)CC3)n2c1CCCC2)c1ccc(O)cc1` [Example 77, 6-{1-[(4-Hydroxyphenyl)(methyl)carbamoyl]-5,6,7,8-tetrahydroindolizin-3-yl}-7-[(3S)-3-(morpholin-4-ylmethyl)-1,2,3,4-tetrahydroisoquinoline-2-carbonyl]-N-phenyl-1,2,3,4-tetrahydroisoquinoline-2-carboxamide]: 84 nM and 4 nM.
In the same order, the values of `C[C@@H]1Cc2ccccc2CN1C(=O)c1cc2c(cc1-c1cc(C(=O)N(C)c3ccc(O)cc3)c3n1CCCC3)CCN(C(=O)NCc1ccccc1)C2` [Example 73, N-Benzyl-6-{1-[(4-hydroxyphenyl)(methyl)carbamoyl]-5,6,7,8-tetrahydroindolizin-3-yl}-7-[(3R)-3-methyl-1,2,3,4-tetrahydroisoquinoline-2-carbonyl]-1,2,3,4-tetrahydroisoquinoline-2-carboxamide] are 36 nM and 4.3 nM.
In the same order, the values of `Cc1c(C(=O)N(C)c2ccc(O)cc2)cc(-c2cc3c(cc2C(=O)N2Cc4ccccc4C[C@H]2C)CN(C(=O)COc2ccccc2)C3)n1C` [Example 103, N-(4-Hydroxyphenyl)-N,1,2-trimethyl-5-{6-[(3R)-3-methyl-1,2,3,4-tetrahydroisoquinoline-2-carbonyl]-2-(2-phenoxyacetyl)-2,3-dihydro-1H-isoindol-5-yl}-1H-pyrrole-3-carboxamide] are 46 nM and 3.6 nM.
With `CN(C(=O)c1cc(-c2cc3c(cc2C(=O)N2Cc4ccccc4C[C@H]2CN2CCOCC2)CN(C(=O)OCc2ccccc2)CC3)n2c1CCCC2)c1ccc(O)cc1` [Example 94, Benzyl 6-{1-[(4-hydroxyphenyl)(methyl)carbamoyl]-5,6,7,8-tetrahydroindolizin-3-yl}-7-[(3S)-3-(morpholin-4-ylmethyl)-1,2,3,4-tetrahydroisoquinoline-2-carbonyl]-1,2,3,4-tetrahydroisoquinoline-2-carboxylate], the results for the IC50 in assay [1] and in assay [2] were 19 nM and 5.6 nM, respectively.
For `C[C@@H]1Cc2ccccc2CN1C(=O)c1cc2c(cc1-c1cc(C(=O)N(C)c3ccc(O)cc3)c3n1CCCC3)CN(CC(=O)Nc1ccccc1)C2` [Example 92, N-(4-Hydroxyphenyl)-N-methyl-3-{6-[(3R)-3-methyl-1,2,3,4-tetrahydroisoquinoline-2-carbonyl]-2-[(phenylcarbamoyl)methyl]-2,3-dihydro-1H-isoindol-5-yl}-5,6,7,8-tetrahydroindolizine-1-carboxamide], the 50% inhibitory concentration (IC50) in assay [1] amounted to 105 nM; in assay [2], 20 nM.
In the same order, the values of `Cc1c(C(=O)N(C)c2ccccc2)cc(-c2cc3c(cc2C(=O)N2Cc4ccccc4C[C@H]2C)CN(C(=O)Oc2cccc(CCC(=O)N(C)C)c2)CC3)n1C` [Example 787, 3-[2-(Dimethylcarbamoyl)ethyl]phenyl 6-{1,5-dimethyl-4-[methyl(phenyl)carbamoyl]-1H-pyrrol-2-yl}-7-[(3R)-3-methyl-1,2,3,4-tetrahydroisoquinoline-2-carbonyl]-1,2,3,4-tetrahydroisoquinoline-2-carboxylate] are 6.2 nM and 5 nM.
The matching figures for `CCNC(=O)N1Cc2cc(C(=O)N3Cc4ccccc4C[C@H]3C)c(-c3cc(C(=O)N(C)c4ccc(O)cc4)c(C)n3C)cc2C1` [Example 110, N-Ethyl-5-{4-[(4-hydroxyphenyl)(methyl)carbamoyl]-1,5-dimethyl-1H-pyrrol-2-yl}-6-[(3R)-3-methyl-1,2,3,4-tetrahydroisoquinoline-2-carbonyl]-2,3-dihydro-1H-isoindole-2-carboxamide]: 329 nM and 19 nM.
The matching figures for `Cc1c(C(=O)N(C)c2ccc(O)cc2)cc(-c2cc3c(cc2C(=O)N2Cc4ccccc4C[C@H]2CCCN2CCOCC2)CN(C(=O)Oc2ccccc2)CC3)n1C` [Example 808, Phenyl 6-{4-[(4-hydroxyphenyl)(methyl)carbamoyl]-1,5-dimethyl-1H-pyrrol-2-yl}-7-[(3R)-3-[3-(morpholin-4-yl)propyl]-1,2,3,4-tetrahydroisoquinoline-2-carbonyl]-1,2,3,4-tetrahydroisoquinoline-2-carboxylate]: 1.6 nM and 2.7 nM.
For `Cc1c(C(=O)N(C)c2ccccc2)cc(-c2cc3c(cc2C(=O)N2Cc4ccccc4C[C@H]2CCCN2CCOCC2)CN(C(=O)OC2CCCCC2)CC3)n1C` [Example 811, Cyclohexyl 6-{1,5-dimethyl-4-[methyl(phenyl)carbamoyl]-1H-pyrrol-2-yl}-7-[(3R)-3-[3-(morpholin-4-yl)propyl]-1,2,3,4-tetrahydroisoquinoline-2-carbonyl]-1,2,3,4-tetrahydroisoquinoline-2-carboxylate], the 50% inhibitory concentration (IC50) in assay [1] was determined as 94 nM; in assay [2] it was 3.8 nM.
The matching figures for `CCS(=O)(=O)N1CCc2cc(-c3cc(C(=O)N(C)c4ccc(O)cc4)c4n3CCCC4)c(C(=O)N3Cc4ccccc4C[C@H]3C)cc2C1` [Example 56, 3-[2-(Ethanesulfonyl)-7-[(3R)-3-methyl-1,2,3,4-tetrahydroisoquinoline-2-carbonyl]-1,2,3,4-tetrahydroisoquinolin-6-yl]-N-(4-hydroxyphenyl)-N-methyl-5,6,7,8-tetrahydroindolizine-1-carboxamide]: 59 nM and 3.8 nM.
The matching figures for `Cc1c(C(=O)N(C)c2ccc(O)cc2)cc(-c2cc3c(cc2C(=O)N2Cc4ccccc4C[C@H]2C)CN(C(=O)COCc2ccccc2)C3)n1C` [Example 160, 5-{2-[2-(Benzyloxy)acetyl]-6-[(3R)-3-methyl-1,2,3,4-tetrahydroisoquinoline-2-carbonyl]-2,3-dihydro-1H-isoindol-5-yl}-N-(4-hydroxyphenyl)-N,1,2-trimethyl-1H-pyrrole-3-carboxamide]: 86 nM and 6.9 nM.
Turning to `Cc1c(C(=O)N(C)c2ccccc2)cc(-c2cc3c(cc2C(=O)N2Cc4ccccc4C[C@H]2CN2CCOCC2)CN(C(=O)Oc2cnc4[nH]ccc4c2)CC3)n1C` [Example 633, 1H-Pyrrolo[2,3-b]pyridin-5-yl 6-{1,5-dimethyl-4-[methyl(phenyl)carbamoyl]-1H-pyrrol-2-yl}-7-[(3S)-3-(morpholin-4-ylmethyl)-1,2,3,4-tetrahydroisoquinoline-2-carbonyl]-1,2,3,4-tetrahydroisoquinoline-2-carboxylate], the IC50 in assay [1] came to 22 nM; in assay [2], 6.1 nM.

As a reminder, the IC50 is the concentration at which inhibition is half-maximal.

For the origin of these results see US9809574B2, “Isoindoline or isoquinoline compounds, a process for their preparation and pharmaceutical compositions containing them” (LES LABORATOIRES SERVIER, priority 2013, dated 2017).
